Experimental data as given in PubChem BioAssay AID274 (DTP/NCI, 2004).
Inconclusive results and toxic doses are left out. Rule for the calls: active = survival T/C of 150% or more; inactive = T/C below 125% in these data.

System: BDF1 mice, Lewis lung carcinoma iv, survival T/C
Assay: NCI In Vivo Anticancer Drug Screen. Data for tumor model Lewis Lung Carcinoma (intravenous) in B6D2F1 (BDF1) mice
Details: schedule: Q01DX009 (ip), higher = longer survival
Experimental: The antitumor activity of compounds was measured in mice bearing transplantable tumors. Survival or tumor size were measured and the results are expressed as the measurement made in the treated group (T) divided by the measurement made in the vehicle treated control group (C). The tumor model used in this assay is Lewis Lung Carcinoma (intravenous) in B6D2F1 (BDF1) mice

[1] = endpoint: median survival time, dose: 25.0 mg/kg/injection, vehicle: Klucel (hydroxypropylcellulose) (HPC)
[2] = endpoint: median survival time, dose: 50.0 mg/kg/injection, vehicle: Klucel (hydroxypropylcellulose) (HPC)
[3] = endpoint: median survival time, dose: 100.0 mg/kg/injection, vehicle: Klucel (hydroxypropylcellulose) (HPC)
[4] = endpoint: median survival time, dose: 12.5 mg/kg/injection, vehicle: saline with Tween-80
[5] = endpoint: median survival time, dose: 25.0 mg/kg/injection, vehicle: saline with Tween-80

Measured: T/C

O=c1[nH]c(=O)n([C@H]2CCCO2)cc1F
inactive: [1] 106 % of control | [2] 104 % of control | [3] 100 % of control

O=C1N(Cl)C(=O)C(c2ccc(Cl)cc2)(c2ccc(Cl)cc2)N1Cl
inactive: [4] 101 % of control | [5] 96 % of control | endpoint: median survival time, dose: 50.0 mg/kg/injection, vehicle: saline with Tween-80 103 % of control | endpoint: median survival time, dose: 100.0 mg/kg/injection, vehicle: saline with Tween-80 101 % of control | endpoint: median survival time, dose: 200.0 mg/kg/injection, vehicle: saline with Tween-80 103 % of control | endpoint: median survival time, dose: 400.0 mg/kg/injection, vehicle: saline with Tween-80 113 % of control

CC(=O)C(O)N1C(=O)C=CC1=O (stereo not given)
inactive: endpoint: median survival time, dose: 0.62 mg/kg/injection, vehicle: saline 115 % of control | endpoint: median survival time, dose: 0.63 mg/kg/injection, vehicle: saline 95 % of control

O=C(Nc1ccc(Cl)c(Cl)c1)Nc1c(Oc2ccc(Cl)c(Cl)c2)ccc(Cl)c1S(=O)(=O)O
inactive: endpoint: median survival time, dose: 3.12 mg/kg/injection, vehicle: Klucel (hydroxypropylcellulose) (HPC) 113 % of control | endpoint: median survival time, dose: 6.25 mg/kg/injection, vehicle: Klucel (hydroxypropylcellulose) (HPC) 104 % of control | [1] 109 % of control | [2] 105 % of control | [3] 100 % of control

CN=C(N)N/N=C(\C)c1ccc2oc3ccc(/C(C)=N/NC(N)=NC)cc3c2c1
inactive: [4] 98 % of control | [5] 118 % of control

Nc1cc2[nH]cnc2c(=O)[nH]1
inactive: endpoint: mean survival time, dose: 95.0 mg/kg/injection, vehicle: Klucel (hydroxypropylcellulose) (HPC) 118 % of control | endpoint: mean survival time, dose: 140.0 mg/kg/injection, vehicle: Klucel (hydroxypropylcellulose) (HPC) 90 % of control
